The values that follow come from ChEMBL document CHEMBL5729487, “Small molecule inhibition of transcription factor SALL4 and uses thereof” (2022).

pIC50: −log10 of the molar value.

The target in the assay is T1, Sal-like protein 4 (Homo sapiens, UniProt Q9UJQ4).
T1 sequence (Q9UJQ4 whole entry): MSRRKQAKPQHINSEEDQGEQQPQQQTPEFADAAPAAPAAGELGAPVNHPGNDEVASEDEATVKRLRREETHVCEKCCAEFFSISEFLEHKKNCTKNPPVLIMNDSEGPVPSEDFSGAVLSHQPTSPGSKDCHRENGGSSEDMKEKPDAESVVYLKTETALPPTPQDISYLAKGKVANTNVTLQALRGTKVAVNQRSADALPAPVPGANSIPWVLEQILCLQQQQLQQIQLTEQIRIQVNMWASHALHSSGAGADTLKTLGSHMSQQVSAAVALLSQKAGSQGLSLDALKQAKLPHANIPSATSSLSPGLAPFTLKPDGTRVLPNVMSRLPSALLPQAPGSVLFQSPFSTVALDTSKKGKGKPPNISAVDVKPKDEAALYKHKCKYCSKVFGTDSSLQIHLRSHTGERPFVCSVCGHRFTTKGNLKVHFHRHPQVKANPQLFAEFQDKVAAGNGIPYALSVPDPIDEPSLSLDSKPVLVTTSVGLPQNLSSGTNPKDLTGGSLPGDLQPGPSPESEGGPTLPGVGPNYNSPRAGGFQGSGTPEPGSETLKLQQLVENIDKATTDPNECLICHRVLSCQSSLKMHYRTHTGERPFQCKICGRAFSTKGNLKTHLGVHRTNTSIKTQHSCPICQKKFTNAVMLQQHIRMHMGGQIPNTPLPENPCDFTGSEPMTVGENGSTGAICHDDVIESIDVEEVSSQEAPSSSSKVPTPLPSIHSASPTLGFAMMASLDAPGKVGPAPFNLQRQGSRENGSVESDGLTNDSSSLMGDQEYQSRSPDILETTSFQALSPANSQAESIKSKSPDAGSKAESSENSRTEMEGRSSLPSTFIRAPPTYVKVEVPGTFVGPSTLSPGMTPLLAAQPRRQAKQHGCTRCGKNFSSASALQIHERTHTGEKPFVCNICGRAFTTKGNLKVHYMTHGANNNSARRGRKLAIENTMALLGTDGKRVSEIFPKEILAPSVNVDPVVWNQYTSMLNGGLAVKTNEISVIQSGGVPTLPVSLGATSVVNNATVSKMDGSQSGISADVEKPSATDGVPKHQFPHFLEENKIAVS
Nature of the assay: TBD: TBD.

Turning to `Oc1ccc2ccccc2c1-c1nc2cnccn2c1NCCN1CCOCC1`, the negative-log IC50 (pIC50) is 5.87.

With `Oc1ccc2ccccc2c1-c1nc2cnccn2c1NC1CC1`, the pIC50 is 6.47. This pIC50 lies 0.60 log units higher than the previous one.

For the compound `COc1ccc(Nc2c(-c3c(O)ccc4ccccc34)nc3cnccn23)cc1`, the pIC50 is 6.21.

With `COCCNc1c(-c2c(O)ccc3ccccc23)nc2cnccn12`, the pIC50 is 6.36.

On to `CC(C)(C)Nc1c(-c2c(O)ccc3ccccc23)nc2ccccn12`, for which the pIC50 was 6.79.

The compound `N#Cc1ccc(Nc2c(-c3c(O)ccc4ccccc34)nc3cnccn23)cc1` gave a negative-log IC50 (pIC50) of 6.30.

Regarding `CC(C)(C)Nc1c(-c2c(O)ccc3ccccc23)nc2cnccn12`, the pIC50 is 6.11. The pIC50 values of the last two compounds are within 0.2 log units of each other.

For the compound `Oc1ccc2ccccc2c1-c1nc2ccccn2c1NC1CC1`, the pIC50 is 6.96.

Compound `Oc1ccc2ccccc2c1-c1nc2ccccn2c1NCCN1CCOCC1` showed a pIC50 of 5.65.

`Oc1ccc2ccccc2c1-c1nc2ccccn2c1NCc1ccccc1` showed a pIC50 of 5.82. This pIC50 and that of the compound before are within 0.2 log units of each other.

In turn, `COc1cccc(CNc2c(-c3c(O)ccc4ccccc34)nc3cnccn23)c1` had a pIC50 of 6.54.

Compound `Oc1ccc2ccccc2c1-c1nc2ccccn2c1NC1CCCCC1` had a pIC50 of 5.56.

In turn, `Oc1ccc2ccccc2c1-c1nc2cnccn2c1NC1CCCCC1` showed a pIC50 of 6.21.

On to `Oc1ccc2ccccc2c1-c1nc2cnccn2c1NCc1ccccc1`, for which the negative logarithm of the IC50 (pIC50) is 6.23.

`COC(=O)c1cccc(Nc2c(-c3c(O)ccc4ccccc34)nc3cnccn23)c1` showed a pIC50 of 6.21.

`COc1ccc(CCNc2c(-c3c(O)ccc4ccccc34)nc3cnccn23)cc1OC` showed a pIC50 of 5.60. Compared with the last compound, the pIC50 is 0.61 log units lower.

A word on the pIC50: it is the negative decadic logarithm of the IC50, by convention in mol/L.
